Reference: US20050153033A1, “Lactic acid bacteria for the treatment of food” (priority 2003, published 2005)

Tested on: C. maltaromaticum strains (CB1, CB2, CB3, LV17, UAL26, ATCC 35586 and ATCC43225)
Assay: Antibiotic resistance, overall statement for the strains tested
Type: cell-based, Carnobacterium maltaromaticum
Settings: overall statement on Table 3
Description: The strains specified in this GRAS document (e.g., Carnobacterium maltaromaticum strains CB1, CB2, CB3, LV17, UAL26, ATCC 35586 AND ATCC43225) have been tested for their resistance to 27 antibiotics (Table 3; Griffiths Labs, 2004).

| Compound | Sensitivity of the C. maltaromaticum strains tested, overall |
| --- | --- |
| CC[C@H]1OC(=O)[C@H](C)[C@@H](O[C@H]2C[C@@](C)(OC)[C@@H](O)[C@H](C)O2)[C@H](C)[C@@H](O[C@@H]2O[C@H](C)C[C@H](N(C)C)[C@H]2O)[C@](C)(O)C[C@@H](C)C(=O)[C@H](C)[C@@H](O)[C@]1(C)O [Erythromycin] | sensitive |
| NC[C@H]1O[C@H](O[C@H]2[C@H](O)[C@@H](O[C@H]3O[C@H](CO)[C@@H](O)[C@H](N)[C@H]3O)[C@H](N)C[C@@H]2N)[C@H](N)C[C@@H]1O [Tobramycin] | sensitive |
| O=C(O)c1cn(C2CC2)c2cc(N3CCNCC3)c(F)cc2c1=O [Ciprofloxacin] | sensitive |
| O=C(N[C@H](CO)[C@H](O)c1ccc([N+](=O)[O-])cc1)C(Cl)Cl [Chloramphenicol] | sensitive |
| Gentamicin | sensitive |
| CCN[C@@H]1C[C@H](N)[C@@H](O[C@H]2OC(CN)=CC[C@H]2N)[C@H](O)[C@H]1O[C@H]1OC[C@](C)(O)[C@H](NC)[C@H]1O [Netilmicin] | sensitive |
| CO[C@H]1/C=C/O[C@@]2(C)Oc3c(C)c(O)c4c(O)c(c(/C=N/N5CCN(C)CC5)c(O)c4c3C2=O)NC(=O)/C(C)=C\C=C\[C@H](C)[C@H](O)[C@@H](C)[C@@H](O)[C@@H](C)[C@H](OC(C)=O)[C@@H]1C [Rifampin] | sensitive |
| Amoxicillin + clavulanic acid | sensitive |
